The values that follow come from US12257243B2, “5-hydroxy-7-oxabicyclo[2.2.1]heptane-2-carboxamide derivatives for inducing chondrogenesis for treating joint damage” (NOVARTIS AG, priority 2018, dated 2025).

For this test, the target named is ALP in normal human articular chondrocytes (NHACs). Nature of the test: Alkaline Phosphatase (ALP) activity assay (staining and quantitation) in NHACs, prevention of chondrocyte hypertrophy. Type of test: cell-based. The following applies: human IL-1 beta 10 ng/mL, 12 days; for IC50: Fast Blue RR staining, high content imaging, read-out: ALP in NHAC IC50; for ALP in NHAC (% Efficacy) / Emax: value in parentheses; for Emax: read-out: ALP in NHAC (% Efficacy). The procedure, abridged: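 Primary human articular chondrocytes plated at 7,500 cells/well in DMEM with 10% FBS alongside test compound, incubated 5 h at 37 °C, then given IL-1β (10 ng/mL final) for 12 days. Fixed cells stained for ALP with Fast Blue RR/naphthol AS-MX, Hoechst counterstain. Read by fluorescence imaging (561 nm) and/or high-content cell scoring.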

Broadly, the IC50 is the concentration needed to halve the response being measured.

Where two headings read alike, the source gives them in different places.

Turning to `Cn1cc([C@H]2[C@H]3O[C@H](C[C@@H]3O)[C@@H]2C(=O)Nc2cc(C(F)(F)F)c(Cl)cn2)c(C(F)(F)F)n1` (single isomer, unassigned) [Example 36b, (1R 2R,3S,4R,5S)—N-(5-chloro-4-(trifluoromethyl)pyridin-2-yl)-5-hydroxy-3-(1-methyl-3-(trifluoromethyl)-1H-pyrazol-4-yl)-7-oxabicyclo[2.2.1]heptane-2-carboxamide or (1S,2S,3R,4S,5R)—N-(5-chloro-4-(trifluoromethyl)pyridin-2-yl)-5-hydroxy-3-(1-methyl-3-(trifluoromethyl)-1H-pyrazol-4-yl)-7-oxabicyclo[2.2.1]heptane-2-carboxamide], the IC50 is 17 µM and the “ALP in NHAC (% Efficacy)” value is 83%.
On to `O=C(Nc1cccc(C(F)(F)F)c1)[C@@H]1[C@@H](c2cccc(C(F)(F)F)c2)[C@H]2O[C@@H]1C[C@@H]2O` (racemic) [Example 10, rac-(1R,2R,3S,4R,5S)-5-hydroxy-N,3-bis(3-(trifluoromethylphenyl)-7-oxabicyclo[2.2.1]heptane-2-carboxamide], for which, where the note is “Chondrocyte, 288 h”, the IC50 came out at 12 µM and the Emax was found to be 108%.
As to `Cc1c(NC(=O)[C@@H]2[C@@H](c3cccc(C(F)(F)F)c3)[C@H]3O[C@@H]2C[C@@H]3O)cccc1C(F)(F)F` (racemic) [Example 11, rac-(1R,2R,3S,4R,5S)-5-hydroxy-N-(2-methyl-3-(trifluoromethyl)phenyl)-3-(3-(trifluoromethyl)phenyl)-7-oxabicyclo[2.2.1]heptane-2-carboxamide], where the note is “Chondrocyte, 288 h”, the IC50 is > 30 µM and the Emax came to 33%.
For the molecule `COc1cc([C@@H]2[C@@H]3O[C@@H](C[C@H]3O)[C@H]2C(=O)Nc2cc(C(F)(F)F)ccc2C#N)ccn1` (single isomer, unassigned) [Example 78b, (1R,2R,3S,4R,5)-N-(2-cyano-5-(trifluoromethyl)phenyl)-5-hydroxy-3-(2-methoxypyridin-4-yl)-7-oxabicyclo[2.2.1]heptane-2-carboxamide or (1S,2S,3R,4S,5R)—N-(2-cyano-5-(trifluoromethyl)phenyl)-5-hydroxy-3-(2-methoxypyridin-4-yl)-7-oxabicyclo[2.2.1]heptane-2-carboxamide], the IC50 was determined as 1.4 µM and the “ALP in NHAC (% Efficacy)” value is listed as 88%.
On to `Cn1cc([C@H]2[C@H]3O[C@H](C[C@@H]3O)[C@@H]2C(=O)Nc2cc(C(F)(F)F)cc(C(F)(F)F)c2)c(C(F)(F)F)n1` (racemic) [Example 50, rac-(1R,2R,3S,4R,5S)—N-(3,5-bis(trifluoromethyl)phenyl)-5-hydroxy-3-(1-methyl-3-(trifluoromethyl)-1H-pyrazol-4-yl)-7-oxabicyclo[2.2.1]heptane-2-carboxamide], for which, under “Chondrocyte, 288 h”, the half-inhibitory concentration (IC50) was 2.3 µM and the Emax is 101%.
Regarding `Cn1cc([C@H]2[C@H]3O[C@H](C[C@@H]3O)[C@@H]2C(=O)Nc2cc(Cl)cc(C(F)(F)F)c2)c(C(F)(F)F)n1` (racemic) [Example 34, rac-(1R,2R,3S,4R,5)-N-(3-chloro-5-(trifluoromethyl)phenyl)-5-hydroxy-3-(1-methyl-3-(trifluoromethyl)-1H-pyrazol-4-yl)-7-oxabicyclo[2.2.1]heptane-2-carboxamide], under “Chondrocyte, 288 h”, the IC50 was 6.5 µM and the Emax was 101%.
On to `O=C(Nc1ccc(Cl)c(C(F)(F)F)c1)[C@@H]1[C@@H](c2cccc(C(F)(F)F)c2)[C@H]2O[C@@H]1C[C@@H]2O` (racemic) [Example 18, rac-(1R,2R,3S,4R,5)-N-(4-chloro-3-(trifluoromethyl)phenyl)-5-hydroxy-3-(3-(trifluoromethyl)phenyl)-7-oxabicyclo[2.2.1]heptane-2-carboxamide], for which, where the note is “Chondrocyte, 288 h”, the IC50 stood at 8 µM and the Emax is 102%.
As for `Cc1cc(NC(=O)[C@@H]2[C@@H](c3ccnc(C(F)(F)F)c3)[C@H]3O[C@@H]2C[C@@H]3O)cc(C(F)(F)F)c1` (racemic) [Example 65, rac-(1R,2R,3S,4R,5S)-5-hydroxy-N-(3-methyl-5-(trifluoromethyl)phenyl)-3-(2-(trifluoromethyl)pyridin-4-yl)-7-oxabicyclo[2.2.1]heptane-2-carboxamide], under “Chondrocyte, 288 h”, the 50% inhibitory concentration (IC50) was 20 µM and the Emax worked out at 57%.
Turning to `Cn1cc([C@H]2[C@H]3O[C@H](C[C@@H]3O)[C@@H]2C(=O)Nc2ccc(C(F)(F)F)c(F)c2)c(C(F)(F)F)n1` (racemic) [Example 55, rac-(1R,2R,3S,4R,5S)—N-(3-fluoro-4-(trifluoromethylphenyl)-5-hydroxy-3-(1-methyl-3-(trifluoromethyl)-1H-pyrazol-4-yl)-7-oxabicyclo[2.2.1]heptane-2-carboxamide], under “Chondrocyte, 288 h”, the IC50 is 16 µM and the Emax was determined as 65%.
Consider `Cn1nc(C(F)(F)F)cc1[C@H]1[C@H]2O[C@H](C[C@@H]2O)[C@@H]1C(=O)Nc1cc(C(F)(F)F)ccc1C#N` (single isomer, unassigned) [Example 72a, (1R,2R,3S,4R,5S)—N-(2-cyano-5-(trifluoromethyl)phenyl)-5-hydroxy-3-(1-methyl-3-(trifluoromethyl)-1H-pyrazol-5-yl)-7-oxabicyclo[2.2.1]heptane-2-carboxamide or (1S,2S,3R,4S,5R)—N-(2-cyano-5-(trifluoromethyl)phenyl)-5-hydroxy-3-(1-methyl-3-(trifluoromethyl)-1-pyrazol-5-yl)-7-oxabicyclo[2.2.1]heptane-2-carboxamide], for which the IC50 was 3.1 µM and the “ALP in NHAC (% Efficacy)” value was determined as 107%.
In the case of “rac-(1R 2R,3S,4R,5S)—N-(4-fluoro-3-(trifluoromethyl)phenyl-5-hydroxy-3-(1-methyl-3-(trifluoromethyl)-1H-pyrazol-4-yl)-7-oxabicyclo[2.2.1]heptane-2-carboxamide [Example 56]”, the IC50 was > 30 µM and the “ALP in NHAC (% Efficacy)” value was 32%.
As to `Cn1cc([C@H]2[C@H]3O[C@H](C[C@@H]3O)[C@@H]2C(=O)Nc2ccc(C#N)c(C(F)(F)F)c2)c(C(F)(F)F)n1` (racemic) [Example 51, rac-(1R,2R,3S,4R,5S)—N-(4-cyano-3-(trifluoromethyl)phenyl)-5-hydroxy-3-(1-methyl-3-(trifluoromethyl-1H-pyrazol-4-yl)-7-oxabicyclo[2.2.1]heptane-2-carboxamide], for the setting “Chondrocyte, 288 h”, the IC50 is > 30 µM and the Emax was found to be 34%.
Turning to `COc1cc([C@@H]2[C@@H]3O[C@@H](C[C@H]3O)[C@H]2C(=O)Nc2cc(C(F)(F)F)ccc2C#N)ccn1` (single isomer, unassigned) [Example 78a, (1R,2R,3S,4R,5)-N-(2-cyano-5-(trifluoromethyl)phenyl)-5-hydroxy-3-(2-methoxypyridin-4-yl)-7-oxabicyclo[2.2.1]heptane-2-carboxamide or (1S,2S,3R,4S,5R)—N-(2-cyano-5-(trifluoromethyl)phenyl)-5-hydroxy-3-(2-methoxypyridin-4-yl)-7-oxabicyclo[2.2.1]heptane-2-carboxamide], the 50% inhibitory concentration (IC50) came out at 1.1 µM and the “ALP in NHAC (% Efficacy)” value worked out at 100%.
In the case of `COc1cc([C@H]2[C@H]3O[C@H](C[C@@H]3O)[C@@H]2C(=O)Nc2cc(C)cc(C(F)(F)F)c2)ccn1` (racemic) [Example 69, rac-(1R,2R,3S,4R,5S)-5-hydroxy-3-(2-methoxypyridin-4-yl)-N-(3-methyl-5-(trifluoromethylphenyl)-7-oxabicyclo[2.2.1]heptane-2-carboxamide], where the note is “Chondrocyte, 288 h”, the concentration for half-maximal inhibition (IC50) was 25 µM and the Emax amounted to 29%.
